In patent US20120165319A1, “INHIBITORS OF INTERLEUKIN-1 BETA CONVERTING ENZYME” (VERTEX PHARMACEUTICALS INCORPORATED, priority 1995, published 2012) one finds clearance and Ki data, which are given here for eleven molecules.

A word on the clearance: it is the rate of elimination divided by the concentration. Read a low clearance as inefficient removal. The Ki is the dissociation constant of the complex between target and ligand, obtained from inhibition or displacement.

A short description of data set [1]: In vivo rat clearance assay. The conditions noted are these: plasma, iv. The procedure, abridged:
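Rats cannulated a day beforehand received 10–20 mg/kg by intravenous jugular dosing in propylene glycol/saline with 100 mM sodium bicarbonate. Carotid blood was sampled from 0 to 90 min, and plasma was extracted with acetonitrile/0.1% TFA for HPLC quantification. Clearance from non-linear regression pharmacokinetic analysis.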

For another data set, the target named is T1, ICE (Homo sapiens, UniProt P29466).
T1 sequence (P29466 120-297 limits assumed): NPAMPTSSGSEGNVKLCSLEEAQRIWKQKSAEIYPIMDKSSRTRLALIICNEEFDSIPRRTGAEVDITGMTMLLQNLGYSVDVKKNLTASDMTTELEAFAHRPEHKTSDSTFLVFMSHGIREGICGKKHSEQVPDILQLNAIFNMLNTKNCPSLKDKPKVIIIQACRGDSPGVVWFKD
T1 sequence (P29466 317-404 limits assumed): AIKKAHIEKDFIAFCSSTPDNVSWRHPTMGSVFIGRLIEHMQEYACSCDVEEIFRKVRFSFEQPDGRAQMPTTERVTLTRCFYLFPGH
The data set can be described thus: Enzyme assay with UV-visible substrate (visible ICE assay, Succinyl-Tyr-Val-Ala-Asp-pNitroanilide). The format is biochemical. Put shortly: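 Colorimetric caspase-1 activity: 15 min enzyme-inhibitor preincubation (RT), then Suc-Tyr-Val-Ala-Asp-pNA; 405-603 nm kinetics, 20 min, 37° C. Ki from rate fitting.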

For the molecule `O=C[C@H](CC(=O)O)NC(=O)[C@@H]1CCCN2C(=O)CC[C@H](NC(=O)c3cccc(Cl)c3)C(=O)N12` [Compound 455], in data set [1] (10-20 mg/kg), the clearance came to 54 mL/min/kg. Further, the Ki on ICE (Table 5) worked out at 1.2 nM.

In turn, `O=C[C@H](CC(=O)O)NC(=O)[C@@H]1CCCN2C(=O)CCN(NS(=O)(=O)c3ccccc3)C(=O)N12` [Compound 1027, [3S(4S)]3-(6,10-Dioxo-1,2,3,4,7,8,9,10-octahydro-7-phenylsulphonylamino-6H-pyridazino[1,2-a][1,2,4]triazepine-4-carboxamido)-4-oxobutanoic acid] yielded a clearance in data set [1] (10-20 mg/kg) of 60 mL/min/kg. Further, the affinity on ICE (Table 5) corresponds to a Ki of 4000 nM.

In data set [1] (10-20 mg/kg), `O=C[C@H](CC(=O)O)NC(=O)[C@@H]1CCCN2C(=O)CC[C@H](NC(=O)c3nccc4ccccc34)C(=O)N12` [Compound 412, [3S(1S,9S)]3-[6,10-Dioxo-9-(isoquinolin-1-oylamino)-1,2,3,4,7,8,9,10-octahydro-6H-pyridazino[1,2-a][1,2]diazepine-1-carboxamido]-4-oxobutanoic acid] registered a clearance of 25 mL/min/kg. In addition, the affinity at ICE (Table 5) corresponds to a Ki of 1.3 nM.

`CC(C)C(=O)Nc1ccc(C(=O)N[C@H]2CCC(=O)N3CCC[C@@H](C(=O)N[C@H](C=O)CC(=O)O)N3C2=O)cc1` [Compound 484]: the clearance in data set [1] (10-20 mg/kg) was found to be 15 mL/min/kg. Further, affinity at ICE (Table 5) was put at a Ki of 2 nM.

In turn, `Cc1cc(C(=O)N[C@H]2CN(C(=O)CO)c3ccccc3N(CC(=O)N[C@H](C=O)CC(=O)O)C2=O)cc(C)c1O` [Compound 691a, (3S)-3-[(3S)-2-Oxo-3-(3,5-dimethyl-4-hydroxybenzoyl)amino-5-hydroxyacetyl-2,3,4,5-tetrahydro-1H-1,5-benzodiazepine-1-acetylamino]-4-oxo-butyric acid] showed a clearance in data set [1] (Table 17) of 9.9 mL/min/kg. For the same molecule, the Ki on ICE (Table 17) was determined as 2.1 nM.

In data set [1] (Table 17), `O=C[C@H](CC(=O)O)NC(=O)[C@@H]1CCCN2C(=O)CCN(NC(=O)c3cc4ccccc4s3)C(=O)N12` [Compound 1053, [3S(4S)]3-[7-(Benzo[b]thiophene-2-carbonyl)amino-6,10-dioxo-1,2,3,4,7,8,9,10-octahydro-6H-pyridazino[1,2-a][1,2,4]triazepine-4-carboxamido]-4-oxobutanoic acid] yielded a clearance of 34 mL/min/kg. Also, the affinity at ICE (Table 17), expressed as Ki, was 27 nM.

Consider `O=C[C@H](CC(=O)O)NC(=O)CN1C(=O)[C@@H](NC(=O)c2nccc3ccccc23)CN(C(=O)CO)c2ccccc21` [Compound 696, (3S)-3-[(3S)-2-Oxo-3-(isoquinolin-1-oyl)amino-5-hydroxyacetyl-2,3,4,5-tetrahydro-1H-1,5-benzodiazepine-1-acetylamino]-4-oxo-butyric acid], for which the clearance in data set [1] (Table 17) is 13 mL/min/kg. On ICE (Table 17), this molecule yielded a Ki of 4.5 nM.

For the molecule `Cc1nc(C)c(C(=O)N[C@H]2CCC(=O)N3CCC[C@@H](C(=O)N[C@H](C=O)CC(=O)O)N3C2=O)s1` [Compound 423], the clearance in data set [1] (10-20 mg/kg) is 45 mL/min/kg. This molecule displayed a Ki on ICE (Table 5) of 10 nM.

On to `COCC(=O)N1C[C@H](NC(=O)c2cccc3ccccc23)C(=O)N(CC(=O)N[C@H](C=O)CC(=O)O)c2ccccc21` [Compound 2201, (3S)-3-[(3S)-2-oxo-3-(1-naphthoyl)amino-5-methoxyacetyl-2,3,4,5-tetrahydro-1H-1,5-benzodiazepine-1-acetylamino]4-oxo-butyric acid], for which the clearance in data set [1] (10-20 mg/kg) was 60 mL/min/kg. For the same molecule, the inhibition constant (Ki) at ICE (Table 5) is 9 nM.

Turning to `COCC(=O)N1C[C@H](NC(=O)c2ccccc2)C(=O)N(CC(=O)N[C@H](C=O)CC(=O)O)c2ccccc21` [Compound 605e, (3S)-3-[(3S)-2-Oxo-3-benzoylamino-5-methoxyacetyl-2,3,4,5-tetrahydro-1H-1,5-benzodiazepin-1-acetylamino]-4-oxo-butyric acid], in data set [1] (10-20 mg/kg), the clearance was determined as 24 mL/min/kg. At ICE (Table 5), this molecule yielded an inhibitory constant (Ki) of 29 nM.

On to `CC(=O)N1C[C@H](NC(=O)c2cc(C)c(O)c(C)c2)C(=O)N(CC(=O)N[C@H](C=O)CC(=O)O)c2ccccc21` [Compound 671, (3S)-3-[(3S)-2-Oxo-3-(3,5-dimethyl-4-hydroxybenzoyl)amino-5-acetyl-2,3,4,5-tetrahydro-1H-1,5-benzodiazepine-1-acetylamino]-4-oxo-butyric acid], for which the clearance in data set [1] (Table 17) was found to be 33.2 mL/min/kg. At ICE (Table 17), this molecule returned a Ki of 5 nM.
